Measurements as given in patent publication US6461997B1, “Triazole sulfones having herbicidal activity” (Monsanto Technology LLC, priority 1999, dated 2002).

Legend:
BROTE (downy brome) [1] = assay: Post-emergence herbicidal activity, cool season; type: in vivo, Bromus tectorum; settings: abraded plants sprayed at 300, 100, 30 and 10 g/ha; about 14 days after treatment
Experimental: In another set of tests, the post-emergence activity of compounds of this invention was evaluated on the cool season species listed above. The following procedure was used.
A pre-prepared topsoil mixture (described above) was placed in a pot and compacted to a depth of 1.0 to 1.25 cm from the top of the pot. Seeds of each of several monocotyledonous and dicotyledonous annual plant species were placed on top of the soil. The seeds were covered with a mixture of 50% topsoil and 50% Rediearth™ in sufficient quantity to level-fill the pots. The pots were then placed on a greenhouse bench and subirrigated as needed.
When plants growing from the seeds had emerged and reached a suitable growth stage for post-emergence treatment, typically 9 to 14 days after planting, above-ground parts of the plants were subjected to a pre-treatment involving abrasion to create greater opportunity for foliar uptake of subsequently applied compounds. Abrasion was performed using garnet 200w particles applied with a Sears Craftsman hand-held sandblaster operated at approximately 850 kPa (50 psig) pressure.
A known amount of each test compound dissolved or suspended in an appropriate organic solvent was diluted with a 50:50 mix of acetone and water and applied to the plants by spraying with a standard spray nozzle in a spray volume of […] at a spray pressure of 511 kPa (30 psig). Only the compounds of Examples 1, 8-15 and 17-22 were included in post-emergence tests. Application rates for these compounds were 300, 100, 30 and 10 g/ha. Control plants were abraded but not sprayed.
After treatment the plants were placed in a greenhouse with an 18/13° C. day/night temperature regime and were subsequently watered as needed for growth. Approximately 14 days after treatment, the plants were observed and herbicidal efficacy recorded as percent inhibition by comparison with control plants. GR80 values were assigned for each compound as described above for the pre-emergence tests.

[2] = test system: CIRAR (canada thistle (seedling)); assay: Pre-emergence herbicidal activity, warm season; type: in vivo, Cirsium arvense; settings: GR80 = lowest tested rate (300, 100, 30, 10 g/ha) with 80% or greater inhibition; approx. 14 days after treating; 30/21° C.
Procedure, shortened: (§1)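 Seeds sown in sterilised fertilised topsoil received surface-applied compound in 50:50 acetone/water, typically at 300, 100, 30 and 10 g/ha, then greenhouse-grown at 30/21° C (warm-season species) or 18/13° C (cool-season species). Percent inhibition versus untreated plants was scored at about 14 days, giving GR80; an asterisk marks activity short of 80% at the top rate.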

AVEFA (wild oat) = assay: Pre-emergence herbicidal activity, cool season; type: in vivo, Avena fatua; settings: GR80 = lowest tested rate (300, 100, 30, 10 g/ha) with 80% or greater inhibition; approx. 14 days after treating; 18/13° C.
Procedure, shortened: as §1

[3] = test system: AGRRE (quackgrass (seedling)); assay: Pre-emergence herbicidal activity, cool season; type: in vivo, Elymus repens; settings: GR80 = lowest tested rate (300, 100, 30, 10 g/ha) with 80% or greater inhibition; approx. 14 days after treating; 18/13° C.
Experimental: (§2) Tables 5 to 8 summarize results of tests conducted as described below to determine the pre-emergence herbicidal activity, in the form of a GR80 value, of illustrative compounds of this invention. […] Compounds of the invention were typically applied at rates of 300, 100, 30, and 10 g/ha. Where herbicidal activity was evident but 80% inhibition was not achieved at the highest rate tested, an asterisk (*) is shown in the following tables.
(§3) The pre-emergence tests were conducted by the following procedure. Topsoil was sieved to pass through a 1.27 cm screen. Fertilizer was added to the topsoil and the mixture was then sterilized by heating. The topsoil mixture was placed in a pot and compacted to a depth of 1.0 to 1.25 cm from the top of the pot. Seeds of each of several monocotyledonous and dicotyledonous annual plant species were placed on top of the soil. Additional soil was subsequently placed over the seeds to level-fill the pot. A known amount of each test compound dissolved or suspended in an appropriate organic solvent was diluted with a 50:50 mix of acetone and water and applied to the surface of the soil. After treatment the plants were placed in a greenhouse where they received 0.64 cm of overhead irrigation. All subsequent watering consisted of a light overhead mist and/or subirrigation as needed for germination and growth. Tables 5 and 6 below relate to warm season plant species which were placed after pre-emergence treatment in a greenhouse with a 30/21° C. day/night temperature regime. Tables 7 and 8 below relates to cool season plant species placed after pre-emergence treatment in a greenhouse or growth chamber with an 18/13° C. day/night temperature regime.
(§4) Approximately 14 days after planting and treating, the plants were observed and herbicidal efficacy recorded as percent inhibition by comparison with untreated plants.
(§5) The plant species usually regarded as weeds which were utilized in the tests are identified in the tables below according to the following legend, in which “d” indicates a dicotyledonous species and “m” a monocotyledonous species. All monocotyledonous species included in the tests herein are grasses.

[4] = test system: CIRAR (canada thistle (seedling)); assay: Pre-plant incorporated (PPI) herbicidal activity, warm season; type: in vivo, Cirsium arvense; settings: GR80 = lowest tested rate with 80% or greater inhibition, approx. 14 days after treating, 30/21° C.
Experimental: (§6) In another set of tests, the pre-plant incorporated (PPI) activity of compounds of this invention was evaluated on the same species as for the pre-emergence tests described above. In the PPI tests the following procedure, designed to simulate PPI application, was used.
(§7) A pre-prepared topsoil mixture (described above) was placed in a pot and compacted to a depth of 1.0 to 1.25 cm from the top of the pot. Seeds of each of several monocotyledonous and dicotyledonous annual plant species were placed on top of the soil. A sufficient quantity of soil to cover the seeds and level fill the pot was weighed into an open container. A known amount of the test compound was dissolved or suspended in an organic solvent and applied by spraying to this cover soil. The cover soil was thoroughly mixed to distribute the test compound throughout the cover soil, and was then applied as a cover layer over the seeds. Untreated soil was used as a cover layer for control pots. After treatment the plants were placed in a greenhouse where they received 0.64 cm of overhead irrigation. All subsequent watering consisted of a light overhead mist and/or subirrigation as needed for germination and growth. Tables 9 and 10 below relate to warm season plant species which were placed after pre-emergence treatment in a greenhouse with a 30/21° C. day/night temperature regime. Tables 11 and 12 below relates to cool season plant species placed after pre-emergence treatment in a greenhouse or growth chamber with an 18/13° C. day/night temperature regime. Only the compounds of Examples 1, 6, 8, 11, 13 and 15-20 were included in PPI tests.
as §4

BROTE (downy brome) [5] = assay: Pre-emergence herbicidal activity, cool season; type: in vivo, Bromus tectorum; settings: GR80 = lowest tested rate (300, 100, 30, 10 g/ha) with 80% or greater inhibition; approx. 14 days after treating; 18/13° C.
Procedure, shortened: as §1

KCHSC (kochia) [6] = assay: Pre-plant incorporated (PPI) herbicidal activity, cool season; type: in vivo, Kochia scoparia; settings: for inhibition at 10 g/ha / inhibition at 30 g/ha / inhibition at 100 g/ha / inhibition at 300 g/ha / inhibition at 900 g/ha: Bassia scoparia, weed, PPI application, read-out: Percent inhibition KCHSC; for PPI activity GR80, KCHSC: pre-plant incorporated, lowest tested rate with 80% or greater inhibition, about 14 days
Experimental: as §6, §7, §4

LOLMG (annual ryegrass) = assay: Pre-emergence herbicidal activity, cool season; type: in vivo, Lolium multiflorum; settings: GR80 = lowest tested rate (300, 100, 30, 10 g/ha) with 80% or greater inhibition; approx. 14 days after treating; 18/13° C.
Procedure, shortened: as §1

[7] = test system: IPOSS (annual morningglory); assay: Pre-plant incorporated (PPI) herbicidal activity, warm season; type: in vivo, Ipomoea spp.; settings: PPI application
Experimental: as §6, §7, §4

KCHSC (kochia) [8] = assay: Pre-emergence herbicidal activity, cool season; type: in vivo, Kochia scoparia; settings: lowest tested rate with 80% or greater inhibition; rates 300, 100, 30, 10 g/ha; about 14 days
Experimental: as §2, §3, §4, §5

| Structure (SMILES) | Post-emergence activity GR80, BROTE (BROTE (downy brome) [1]) | Pre-emergence activity (GR80) CIRAR [2] | Pre-emergence activity (GR80) AVEFA (AVEFA (wild oat)) | Pre-emergence activity (GR80) AGRRE [3] | PPI activity (GR80) CIRAR [4] | Pre-emergence activity (GR80) BROTE (BROTE (downy brome) [5]) | inhibition at 10 g/ha (KCHSC (kochia) [6]) | inhibition at 30 g/ha (KCHSC (kochia) [6]) | inhibition at 100 g/ha (KCHSC (kochia) [6]) | inhibition at 300 g/ha (KCHSC (kochia) [6]) | inhibition at 900 g/ha (KCHSC (kochia) [6]) | Pre-emergence activity (GR80) LOLMG (LOLMG (annual ryegrass)) | PPI activity GR80, KCHSC (KCHSC (kochia) [6]) | Percent inhibition IPOSS ([7]; 10 g/ha) | Percent inhibition IPOSS ([7]; 30 g/ha) | Percent inhibition IPOSS ([7]; 100 g/ha) | Percent inhibition IPOSS ([7]; 300 g/ha) | Percent inhibition IPOSS ([7]; 900 g/ha) | other results |
| --- | --- | --- | --- | --- | --- | --- | --- | --- | --- | --- | --- | --- | --- | --- | --- | --- | --- | --- | --- |
| CCN(CC)C(=O)n1cnc(S(=O)(=O)C(F)(F)C(F)(F)SC)n1 [Example 14] | [empty] | 300 g/ha | 300 g/ha | * (activity observed, at least at highest rate, but <80% inhibition) |  |  |  |  |  |  |  |  |  |  |  |  |  |  |  |
| C=C(C)CC(F)(F)S(=O)(=O)c1ncn(C(=O)N(CC)CC)n1 [Example 18] | [empty] | 300 g/ha | * (activity observed, at least at highest rate, but <80% inhibition) | 300 g/ha | 30 g/ha | 300 g/ha | 40% | 80% | 80% | 100% | 100% | 300 g/ha |  |  |  |  |  |  |  |
| C=C(Br)CC(F)(F)S(=O)(=O)c1ncn(C(=O)N(CC)CC)n1 [Example 19] | [empty] | 300 g/ha | * (activity observed, at least at highest rate, but <80% inhibition) | * (activity observed, at least at highest rate, but <80% inhibition) | 300 g/ha | * (activity observed, at least at highest rate, but <80% inhibition) | 0% | 20% | 80% | 80% | 100% | 300 g/ha |  |  |  |  |  |  |  |
| CCN(CC)C(=O)n1cnc(S(=O)(=O)C(F)(F)C(F)F)n1 [Example 16] |  |  | 300 g/ha | * (activity observed, at least at highest rate, but <80% inhibition) | 30 g/ha |  |  |  |  |  |  | 300 g/ha | 30 g/ha | 0% | 0% | 0% | 0% | 50% |  |
| CCN(CC)C(=O)n1cnc(S(=O)(=O)C(F)(F)SCCOC)n1 [Example 13] | [empty] |  | 300 g/ha |  | 100 g/ha | 300 g/ha |  |  |  |  |  |  | * (activity observed, at least at highest rate, but <80% inhibition) | 0% | 0% | 0% | 10% | 100% |  |
| CCN(CC)C(=O)n1cnc(S(=O)(=O)C(F)(F)SCC(=O)OC)n1 [Example 11] | [empty] | 300 g/ha |  |  | 100 g/ha |  |  |  |  |  |  |  |  | 0% | 0% | 0% | 0% | 0% |  |
| CCN(CC)C(=O)n1cnc(S(=O)(=O)C(F)F)n1 [Example 15, 1-(N,N-diethylcarbamoyl)-3-(difluoromethylsulfonyl)-1,2,4-triazole] | [empty] | 30 g/ha |  |  | 100 g/ha |  |  |  |  |  |  |  | 100 g/ha |  |  |  |  |  | inhibition at 30 g/ha ([7]; Ipomoea, 30 g/ha, read-out: Percent inhibition IPOSS): 0%; inhibition at 300 g/ha ([7]; Ipomoea, 300 g/ha, read-out: Percent inhibition IPOSS): 20%; inhibition at 900 g/ha ([7]; Ipomoea, 900 g/ha, read-out: Percent inhibition IPOSS): 20% |
| CCN(CC)C(=O)n1cnc(S(=O)(=O)C(F)(F)SCc2ccccc2)n1 [Example 10] | [empty] | 300 g/ha |  |  |  |  |  |  |  |  |  |  |  | 0% | 0% | 0% | 0% | 50% |  |
| CCN(CC)C(=O)n1cnc(S(=O)(=O)C(F)(F)Cl)n1 [Example 3] |  | 30 g/ha |  |  |  | * (activity observed, at least at highest rate, but <80% inhibition) |  |  |  |  |  |  |  |  | 0% | 50% | 100% | 80% | Pre-emergence activity GR80, KCHSC (KCHSC (kochia) [8]): 300 g/ha |
| C=CCC(F)(F)S(=O)(=O)c1ncn(C(=O)N(CC)CC)n1 [Example 17, 1-(N,N-diethylcarbamoyl)-3-[(1,1-difluoro-3-butenyl)sulfonyl]-1,2,4-triazole] | [empty] |  | 100 g/ha |  | 300 g/ha | 100 g/ha | 70% | 100% | 100% | 100% | 100% | 100 g/ha | 30 g/ha |  |  |  |  |  |  |
